Measurements from patent publication US11479802B2, “Assays for screening activity of modulators of members of the hydroxy steroid (17-beta) dehydrogenase (HSD17B) family” (Regeneron Pharmaceuticals, Inc., priority 2017, dated 2022).
Structures can show the parent of a compound that is named as a salt.

Target: T1, human HSD17B13 (Homo sapiens, UniProt Q7Z5P4)
T1 sequence (Q7Z5P4 20-300): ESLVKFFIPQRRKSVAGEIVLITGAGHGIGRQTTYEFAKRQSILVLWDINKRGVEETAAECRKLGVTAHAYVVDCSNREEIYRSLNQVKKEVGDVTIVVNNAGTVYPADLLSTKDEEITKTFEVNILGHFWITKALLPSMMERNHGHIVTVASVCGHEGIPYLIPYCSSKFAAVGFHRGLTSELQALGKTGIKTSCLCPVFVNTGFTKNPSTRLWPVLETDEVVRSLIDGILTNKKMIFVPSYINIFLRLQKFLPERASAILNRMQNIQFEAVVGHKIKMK
Assay: Substrate screening of steroid and bioactive lipid libraries against purified recombinant HSD17B13 (NADH-linked luciferase assay)
Format: biochemical
Conditions: for HSD17B13 Enzymatic Activity Relative Light Units: 500 μM NAD+, 100 ng enzyme, 3 hours at 23° C.; for HSD17B13 Enzymatic Activity Percent Estradiol Control: normalized to 50 μM estradiol after subtraction of 5% DMSO
Method: To understand the functional consequences of premature truncation of the HSD17B13 protein due to rs72613567:TA (the associated variant, rs72613567, is an insertion of an adenine adjacent to the donor splice site of exon six (TA allele)), the enzymatic activity of isoforms A and D was evaluated in vitro using recombinant protein and nicotinamide […] dinucleotide as cofactor. Reactions were performed in a final volume of 40 μl of assay buffer (0.2 M Tris-HCl, pH 7.5) which contained 500 μM NAD^+, 5 μM bioactive lipid or 50 μM steroid (all in a final concentration of 5% DMSO), and 100 ng of recombinant human HSD17B13. Reactions were incubated for 3 hours, at 23° C., after which an equal volume detection reagent was added. Following a 1 hour incubation at 23° C., the relative light units (RLUs) were measured on an Envision Plate Reader (Perkin Elmer). Raw RLU values were normalized as percent of control (50 μM estradiol) following subtraction of negative control (5% DMSO) using the following formula: Percent of control (POC)=100×(Sample (RLU)−Negative CTRLaverage)/(Positive CTRLaverage−Negative CTRLaverage).

[1] = Bioactive Lipid Library, 5 μM bioactive lipid (Estradiol Control 50 μM)
[2] = Bioactive Lipid Library, 5 μM bioactive lipid

Compound	HSD17B13 Enzymatic Activity Relative Light Units [1] [RLU]	HSD17B13 Enzymatic Activity Percent Estradiol Control [2] [%]	HSD17B13 Enzymatic Activity Relative Light Units (Steroid Library, 50 μM steroid) [RLU]	HSD17B13 Enzymatic Activity Percent Estradiol Control (Steroid Library, 50 μM steroid) [%]
CCCCC/C=C\C[C@@H](O)/C=C/C=C\C/C=C\CCCC(=O)O [12(R)-HETE]	1932320	122.36	–	–
CC/C=C\CC1OC1C/C=C\C/C=C\C/C=C\CCCC(=O)O (racemic) [(±)14(15)-EpETE]	306600	1.86	–	–
CC[C@H](CC[C@@H](C)[C@H]1CC[C@H]2[C@@H]3CC=C4C[C@@H](O)CC[C@]4(C)[C@H]3CC[C@]12C)C(C)C [Beta-sitosterol]	–	–	168880	0.14
CC/C=C\CC(O)/C=C/C=C\C/C=C\C/C=C\C/C=C\CCC(=O)O (racemic) [(±)17-HDHA]	492440	15.29	–	–
CCCCCC(=O)/C=C/[C@@H]1[C@H](C/C=C\CCCC(=O)O)[C@@H](O)C[C@H]1O [8-iso-15-keto Prostaglandin F2α]	312360	2.31	–	–
CCCCC[C@H](O)/C=C/[C@@H]1[C@@H](C/C=C\CC(=O)O)[C@@H](O)C[C@@H]1O [2,3-dinor-11β-Prostaglandin F2α]	265000	−1.43	–	–
CCCCC/C=C\CC(O)C(O)C/C=C\C/C=C\CCCC(=O)O (racemic) [(±)11(12)-DiHET]	599000	20.69	–	–
CCCCC[C@H](O)/C=C/C=C\CCCCCCCCCC(=O)O [15(S)-HEDE]	1060680	57.54	–	–
CC(C)OC(=O)CCC/C=C/C[C@@H]1[C@@H](/C=C/[C@@H](O)COc2cccc(C(F)(F)F)c2)[C@H](O)C[C@@H]1O (relative stereo) [5-trans Fluprostenol isopropyl ester]	551400	21.21	–	–
O=C(O)CCCC/C=C\C[C@@H](O)/C=C/C=C/C=C\[C@@H](O)CCCC(=O)O [20-carboxy Leukotriene B4]	400440	9.28	–	–
CCCCC/C=C\C/C=C\C/C=C\C=C\[C@@H](O)CCCC(=O)O (racemic) [(±)5-HETE]	431960	10.79	–	–
CCCCC[C@H](O)/C=C/[C@H]1[C@H](O)CC(=O)[C@@H]1CCCCC(=O)O [2,3-dinor Prostaglandin E1]	344240	4.83	–	–
CC/C=C\C/C=C\C/C=C\C[C@H](O)/C=C/C=C\CCCC(=O)O [9(S)-HEPE]	564200	20.63	–	–
CCCCC/C=C\C/C=C\C/C=C\C[C@H]1O[C@H]1CCCC(=O)NCCO (racemic) [(±)5(6)-EET Ethanolamide]	450160	9.45	–	–
CCCCCC1OC1C/C=C\C/C=C\C/C=C\CCCC(=O)O (racemic) [(±)14(15)-EET]	305720	1.41	–	–
CC/C=C\C[C@H](O)/C=C/C=C\C/C=C\C/C=C\CCCC(=O)O [15(S)-HEPE]	505240	16.24	–	–
CC(=O)N[C@@H](CSC(=O)[C@]1([C@@H](O)C(C)C)NC(=O)[C@H](C)[C@@H]1O)C(=O)O [Lactacystin]	328520	0.26	–	–
CCCCC/C=C\C\C=C/C=C/C=C/[C@@H](SC[C@H](NC(=O)CC[C@@H](N)C(=O)O)C(=O)O)[C@@H](O)CCCC(=O)O [Leukotriene F4]	400400	9.27	–	–
O=P(O)(O)OC1[C@@H](OP(=O)(O)O)[C@H](O)C(O)[C@@H](O)[C@H]1OP(=O)(O)O (stereo partly drawn) [D-myo-Inositol-3,4,5-triphosphate (sodium salt)]	400520	5.70	–	–
CC1(C)[C@@H](O)CC[C@]2(C)[C@H]3C(=O)C=C4[C@@H]5C[C@@](C)(C(=O)O)CC[C@]5(C)CC[C@@]4(C)[C@]3(C)CC[C@@H]12 [18beta-Glycyrrhetinic acid]	–	–	32720	−2.23

Compound	HSD17B13 Enzymatic Activity Relative Light Units [1] [RLU]	HSD17B13 Enzymatic Activity Percent Estradiol Control [2] [%]	HSD17B13 Enzymatic Activity Relative Light Units (Steroid Library, 50 μM steroid) [RLU]	HSD17B13 Enzymatic Activity Percent Estradiol Control (Steroid Library, 50 μM steroid) [%]
CC1(C)[C@@H]2C[C@H](NS(=O)(=O)c3ccc(I)cc3)[C@@H](C/C=C\CCCC(=O)O)[C@H]1C2 [I-SAP]	245520	−2.97	–	–
CCCCC/C=C\C=C\C(O)CCCCCCCC(=O)O (racemic) [(±)9-HODE]	695320	30.38	–	–
CC/C=C\C[C@H](O)/C=C/[C@H]1OC(O)C[C@H](O)[C@@H]1C/C=C\CCCC(=O)O (stereo partly drawn) [Thromboxane B3]	348080	5.14	–	–
CC/C=C\C[C@@H](/C=C/C=C\C/C=C\C/C=C\CCCC(=O)O)OO [15(S)-HpEPE]	316200	2.18	–	–
CCCCC[C@H](O)/C=C/C=C\C/C=C\C/C=C\CCCC(=O)NCCO [15(S)-HETE Ethanolamide]	535680	19.97	–	–
CCCCC[C@H](O)/C=C/[C@H]1C(=O)CC(=O)[C@@H]1CCCCCCC(=O)O [Prostaglandin K1]	223160	−4.74	–	–
CCCCC[C@H](O)/C=C/[C@H]1OC(O)C[C@H](O)[C@@H]1CCCCC(=O)O (stereo partly drawn) [2,3-dinor Thromboxane B1]	364840	3.01	–	–
C[C@]12CCC(=O)C[C@@H]1CC[C@@H]1[C@@H]2C(=O)C[C@]2(C)C(=O)CC[C@@H]12 [5alpha-Androstane-3,11,17-trione]	–	–	228280	1.18
CC/C=C\C[C@H]1O[C@H]1C/C=C\C/C=C\C/C=C\C/C=C\CCC(=O)O (racemic) [(±)16(17)-EpDPA]	274120	−0.71	–	–
CCCCC[C@H](O)/C=C/[C@H]1[C@H](O)C[C@]2(C)C/C(=C\CCCC(=O)[O-])C[C@H]12.CCCCC[C@H](O)/C=C/[C@H]1[C@H](O)C[C@]2(C)C/C(=C\CCCC(=O)[O-])C[C@H]12.[Ca+2] [Ciprostene (calcium salt)]	360560	6.12	–	–
Prostaglandin D2-biotin	367880	3.24	–	–
CCCCC/C=C\C=C\[C@@H](O)CCCCCCCC(=O)O [9(S)-HODE]	539560	18.79	–	–
C[C@]12CCC(=O)C[C@@H]1CC[C@@H]1[C@@H]2CC[C@]2(C)C(=O)CC[C@@H]12 [5a-androstanedione]	–	–	181840	0.37
CC/C=C\C[C@H](O)/C=C/C=C\CCCCCCCC(=O)O [13(S)-HOTrE]	528240	17.95	–	–
C[C@@H](O)CCC[C@@H](O)/C=C/[C@H]1[C@H](O)CC(=O)[C@@H]1CCCCCCC(=O)O [15(R),19(R)-hydroxy Prostaglandin E1]	333200	3.96	–	–
Ptdlns-(3)-P1 (1,2-dioctanoyl) (sodium salt)	319680	−0.40	–	–
CCC(O)/C=C/C=C\C/C=C\C/C=C\C/C=C\C/C=C\CCC(=O)O (racemic) [(±)20-HDHA]	1400640	82.82	–	–
CCCCC/C=C\C/C=C\CC(O)C(O)C/C=C\CCCC(=O)O (racemic) [(±)8(9)-DiHET]	472120	11.11	–	–
CCCCCC(=O)CC[C@@H]1[C@@H](C/C=C\CCCC(=O)O)[C@@H](O)C[C@@H]1O [11β-13,14-dihydro-15-keto Prostaglandin F2α]	310000	2.13	–	–
